# Patent publication US20240050513A1, “COMPOSITION FOR PREVENTING, AMELIORATING, OR TREATING DISEASE CAUSED BY PROTEIN NITRATION […] WITH TERMINAL TYROSINE AS EFFECTIVE COMPONENT” (INDUSTRY-ACADEMIC COOPERATION FOUNDATION GYEONGSANG …, priority 2021, published 2024)
# Experiments:
# [1] = system: renal ischemia-reperfusion C57BL/6 mice; conditions: 100 mg/kg oral, 24 hours of reperfusion
# Description: Male C57BL/6 mice weighing 23 to 25 g were housed in a germ-free facility with controlled temperature and humidity. They were allowed free access to water and food. […] Renal ischemia was induced by midline laparotomy and occlusion of both renal pedicles using a Müller atraumatic vascular clamp for 25 minutes, followed by removal of the clamp for reperfusion. Control group (sham) underwent the same surgical procedures except the induction of ischemia using clamp. After 24 hours of reperfusion, the mice were sacrificed, and blood was collected from the heart, and the kidney tissue was harvested.
# The collected blood was centrifuged at 3,000 rpm for 15 minutes to separate the serum, and the serum creatinine level, an indicator for evaluating kidney damage, was measured using the Jaffe method. The Jaffe method involves measuring the absorbance of the serum sample at 510 nm wavelength after reacting it with picric acid and then terminating the reaction with 60% acetic acid followed by measurement of absorbance, and calculating the concentration of creatinine in mg/mL units based on the difference in absorbance.
# The total RNA was extracted from the kidney tissues using the Trizol method, and cDNA was synthesized using the RevertAid Reverse Transcription System (ThermoFisher). Quantitative PCR (qPCR) for inflammatory cytokines (IL-1β, IL-6, and MCP-1) was performed using the iQ SYBR Green Supermix (Bio-Rad) on the CFX Connect Real-Time PCR system (Bio-Rad). The relative amount of the target mRNA, normalized to GAPDH, was analyzed using the […].
# The kidney tissue was homogenized in RIPA buffer, and protein quantification was performed using the BCA method. Western blot was then carried out using antibodies against nitrotyrosine and 4-hydroxynonenal (4-HNE), i.e., a product of lipid peroxidation.
# [2] = system: ischemic stroke Mongolian gerbils; assay: Neuronal cell death in ischemic stroke model (cell count, immunohistochemical staining); type: in vivo
# Description: (§1) Three-month-old male Mongolian gerbils were induced with general anesthesia using 3% isoflurane and the anesthesia was maintained with 2.5% isoflurane gas. After sterilizing the neck area, a midline incision was made to expose both common carotid arteries, and microvessel clip was used to block the blood flow for 5 minutes, inducing cerebral ischemia to simulate a stroke. During the application of the microvessel clip, the body temperature was maintained at 37.0±0.5° C., and animals undergoing sham operation were used as the control group.
# After inducing ischemia, the animal was, under reperfusion, intraperitoneally administered with YQ peptide at a dose of 200 mg/kg, three times every 24 hours. On the fourth day, the animal was sacrificed, and brain tissues were collected to measure the number of dead neuronal cell.
# Immunohistochemical staining was carried out to examine changes in neuronal cells and microglial cells and also a change in related factors in the hippocampus of an ischemic brain injury animal model. Specifically, after inducing ischemia, YQ peptide was administered intraperitoneally three times every 24 hours at a dose of 200 mg/kg under reperfusion. A control group was administered with a vehicle (i.e., 0.9% saline) instead of the peptide. On the 4th day, the animal was sacrificed, and brain tissue was collected and fixed with 4% paraformaldehyde at 4° C. Subsequently, the tissue was added to sucrose solutions of increasing concentrations (i.e., 10%, 20%, and 30%), frozen using liquid nitrogen, and sectioned into continuous slice specimens with a thickness of 30 μm. The specimens were stored in a cryoprotective solution at −20° C. The brain tissue specimen was rinsed three times for 10 minutes each with 0.01 M PBS and treated with 0.3% H2O2 for 30 minutes to eliminate endogenous peroxidase present in the tissue. To prevent any nonspecific immune reaction, the specimen was incubated for 30 minutes with 5% normal serum corresponding to each antibody. […]
# catalase (CAT) = assay: Hippocampal catalase activity in ischemic stroke model; type: in vivo, Mongolian gerbils; conditions: hippocampus, 200 mg/kg i.p. once, twenty-four hours after reperfusion
# Description: as §1
# After inducing ischemia, the animal was, under reperfusion, intraperitoneally administered once with YQ peptide at a dose of 200 mg/kg. Two hours or twenty-four hours after the reperfusion, the animal was anesthetized with avertin. Then, the skull was quickly opened, and the brain was rapidly removed. The hippocampal tissue was collected and rapidly frozen in liquid nitrogen, then stored in a deep freezer. Subsequently, the activities of superoxide dismutase (SOD) and catalase (CAT) were measured by using SOD colorimetric activity kit and CAT colorimetric activity kit, respectively.
substance,measurement,setting,value
tyrosine-glutamine [YQ],lipid peroxidation (4-HNE) in the kidney tissue,[1]; Western blot,significantly reduced
same,proteins with nitrated tyrosine in the kidney tissue,[1]; Western blot,significantly reduced
same,increase in expression level of IL-1β in kidney tissue,[1]; qPCR,statistically significantly inhibited
same,increase in expression level of IL-6 in kidney tissue,[1]; qPCR,statistically significantly inhibited
same,increase in expression level of MCP-1 in kidney tissue,[1]; qPCR,statistically significantly inhibited
same,number of neuronal cells,"[2]; 200 mg/kg i.p. three times every 24 hours, fourth day",increase
same,cells found to survive compared to the sham operation group,"[2]; hippocampal CA1 region, 200 mg/kg i.p. three times every 24 hours, 4th day",approximately 60.7%
same,morphological changes in glial cells,"[2]; immunohistochemical staining, 200 mg/kg i.p. three times",minimal morphological changes
same,CAT activity,catalase (CAT),activity increases
